Data from US5194433A, “Antibiotic C-3 catechol-substituted cephalosporin compounds, compositions and method of use thereof” (Bristol-Myers Squibb Company, priority 1990, dated 1993).
Converted amounts (≈) assume the structure as drawn. Like-named read-outs stand apart in the source and are kept apart here.

Legend:
Assay in all cases: in vitro antibacterial activity, two-fold serial agar dilution in Mueller-Hinton agar (MIC)
Assay type in all cases: cell-based
[1] = test system: Penicillin (PC)sensitive S. aureus; settings: Staphylococcus aureus, Gp-Ia, 5 strains, read-out: Geometric mean of MIC
Source text: (§1) Table 3 lists the in vitro antibacterial activity of several representative compounds of the invention. The activity has been evaluated in terms of minimum inhibitory concentrations (MIC's) by a standard two-fold serial agar dilution method in Mueller-Hinton agar. The values are in geometric means of MIC's against the strains tested in each group. The activity of the known compound ceftazidime is also given for comparison.
GpIa: Penicillin (PC)sensitive S. aureus

PCresistant S. aureus = settings: Staphylococcus aureus; Gp-Ib, 5 strains, penicillin-resistant S. aureus; read-out: Geometric mean of MIC
Source text: as §1
GpIb: PCresistant S. aureus

[2] = test system: Cephalothin (CET)sensitive E. coli (2 strains), Kl. pneumoniae (1) and Pr. mirabilis (2); settings: Gn-Ia, 5 strains, read-out: Geometric mean of MIC
Source text: as §1
GnIa: Cephalothin (CET)sensitive E. coli (2 strains), Kl. pneumoniae (1)

[3] = test system: CETsensitive E. coli (3) and Kl. pneumoniae (2); settings: Escherichia coli, read-out: Geometric mean of MIC
Source text: as §1
GnIb: CETsensitive E. coli (3) and Kl. pneumoniae (2)

[4] = test system: M. morganii (1), Ent. cloacae (2) and Ser. marcesens (2); settings: Morganella morganii, read-out: Geometric mean of MIC
Source text: as §1
GnII: M. morganii (1), Ent. cloacae (2) and Ser. marcesens (2)

[5] = test system: Ceftazidimesensitive P. aeruginosa; settings: Pseudomonas aeruginosa, read-out: Geometric mean of MIC
Source text: as §1
Pa (S): Ceftazidimesensitive P. aeruginosa

[6] = test system: Ceftazidimemoderately resistant P. aeruginosa; settings: Pseudomonas aeruginosa, read-out: Geometric mean of MIC
Source text: as §1
Pa (MR): Ceftazidimemoderately resistant P. aeruginosa

[7] = test system: Ceftazidimehighly resistant P. aeruginosa; settings: Pseudomonas aeruginosa; Pa (HR), 8 strains, ceftazidime highly resistant; read-out: Geometric mean of MIC
Source text: as §1
Pa (HR): Ceftazidimehighly resistant P. aeruginosa

P. cepacia = settings: Burkholderia cepacia; Pc, 2 strains; read-out: Geometric mean of MIC
Source text: as §1

X. moltophilia = settings: read-out: Geometric mean of MIC
Source text: as §1

[8] = Pa (S), 10 strains, ceftazidime-sensitive
[9] = Pa (MR), 8 strains, ceftazidime moderately resistant

CC(C)(O/N=C(\C(=O)NC1C(=O)N2C(C(=O)O)=C(Cn3cnc4cc(O)c(O)cc43)CS[C@H]12)c1csc(N)n1)C(=O)O (some centres unmarked) [Ia, 7-[(Z)-2-(2-Aminothiazol-4-yl)-2-(1-carboxy-1-methylethoxyimino)acetamido]-3-(5,6-dihydroxybenzimidazol-1-yl)methyl-3-cephem-4-carboxylic acid]
MIC [1]: 50 µg/mL (≈ 81 µM) | MIC (PCresistant S. aureus): 50 µg/mL (≈ 81 µM) | MIC [2]: 0.61 µg/mL (≈ 0.988 µM) | MIC [3]: 0.8 µg/mL (≈ 1.3 µM) | MIC ([4]; Gn-II, 5 strains): 1.6 µg/mL (≈ 2.59 µM) | MIC [5, 8]: 0.14 µg/mL (≈ 0.227 µM) | MIC [6]: 0.47 µg/mL (≈ 0.761 µM) | MIC [7]: 0.37 µg/mL (≈ 0.599 µM) | MIC (P. cepacia): 12.5 µg/mL (≈ 20.2 µM) | MIC (X. moltophilia; Xm, 4 strains): 3.1 µg/mL (≈ 5.02 µM)

CC(C)(O/N=C(\C(=O)NC1C(=O)N2C(C(=O)O)=C(Cn3ccc4ccc(O)c(=O)c-4c3)CS[C@H]12)c1csc(N)n1)C(=O)O (some centres unmarked) [Ib, 7-[(Z)-2-(2-Aminothiazol-4-yl)-2-(1-carboxy-1-methylethoxyimino)acetamido]-3-(2,8-dihydro-7-hydroxy-8-oxo-isoquinolin-2-yl)methyl-3-cephem-4-carboxylic acid]
MIC [1]: 100 µg/mL (≈ 159 µM) | MIC (PCresistant S. aureus): > 100 µg/mL | MIC [2]: 0.6 µg/mL (≈ 0.954 µM) | MIC [3]: 0.8 µg/mL (≈ 1.27 µM) | MIC ([4]; Gn-II, 5 strains): 2.4 µg/mL (≈ 3.82 µM) | MIC [5]: 1.2 µg/mL (≈ 1.91 µM) | MIC [6, 9]: 2.9 µg/mL (≈ 4.61 µM) | MIC [7]: 2.6 µg/mL (≈ 4.14 µM) | MIC (P. cepacia): 8.9 µg/mL (≈ 14.2 µM) | MIC (X. moltophilia; Xm, 4 strains): 12.5 µg/mL (≈ 19.9 µM)

CC(C)(O/N=C(\C(=O)NC1C(=O)N2C(C(=O)O)=C(Cn3cc4cc(O)c(=O)cc-4cn3)CS[C@H]12)c1csc(N)n1)C(=O)O (some centres unmarked) [Ic, 7-[(Z)-2-(2-Aminothiazol-4-yl)-2-(1-carboxy-1methylethoxyimino)acetamido]-3-(2,6-dihydro-7-hydroxy-6-oxophthalazin-2-yl)methyl-3-cephem-4-carboxylic acid]
MIC [1]: 25 µg/mL (≈ 39.7 µM) | MIC (PCresistant S. aureus): 33 µg/mL (≈ 52.4 µM) | MIC [2]: 0.11 µg/mL (≈ 0.175 µM) | MIC [3]: 0.033 µg/mL (≈ 0.0524 µM) | MIC ([4]; Gn-II, 5 strains): 0.4 µg/mL (≈ 0.635 µM) | MIC [5, 8]: 0.033 µg/mL (≈ 0.0524 µM) | MIC [6, 9]: 0.37 µg/mL (≈ 0.588 µM) | MIC [7]: 0.73 µg/mL (≈ 1.16 µM) | MIC (P. cepacia): 0.57 µg/mL (≈ 0.905 µM) | MIC (X. moltophilia; Xm, 4 strains): 6.3 µg/mL (≈ 10 µM)

C[n+]1cn(CC2=C(C(=O)[O-])N3C(=O)C(NC(=O)C(=NOC(C)(C)C(=O)O)c4csc(N)n4)C3SC2)c2cc(O)c(O)cc21 (centres unmarked) [Id, 7-[(Z)-2-(2-Aminothiazol-4-yl)-2-(1-carboxy-1-methylethoxyimino)acetamido]-3-(5,6-dihydroxy-3-methylbenzimidazol-3-io-1-yl)methyl-3-cephem-4-carboxylate]
MIC [1]: 25 µg/mL (≈ 39.6 µM) | MIC (PCresistant S. aureus): 33 µg/mL (≈ 52.2 µM) | MIC [2]: 0.044 µg/mL (≈ 0.0697 µM) | MIC [3]: 0.15 µg/mL (≈ 0.237 µM) | MIC [4]: 0.15 µg/mL (≈ 0.237 µM) | MIC [5, 8]: 0.057 µg/mL (≈ 0.0902 µM) | MIC [6, 9]: 0.31 µg/mL (≈ 0.491 µM) | MIC [7]: 0.18 µg/mL (≈ 0.285 µM) | MIC (P. cepacia): 3.2 µg/mL (≈ 5.07 µM) | MIC (X. moltophilia; Xm, 4 strains): 0.8 µg/mL (≈ 1.27 µM)

CC(C)(O/N=C(\C(=O)N[C@@H]1C(=O)N2C(C(=O)[O-])=C(C[n+]3ccccc3)CS[C@H]12)c1csc(N)n1)C(=O)O [ceftazidime, reference compound]
MIC [1]: 6.3 µg/mL (≈ 11.5 µM) | MIC (PCresistant S. aureus): 12.5 µg/mL (≈ 22.9 µM) | MIC [2]: 0.17 µg/mL (≈ 0.311 µM) | MIC [3]: 0.3 µg/mL (≈ 0.549 µM) | MIC [4]: 0.91 µg/mL (≈ 1.66 µM) | MIC [5]: 1.2 µg/mL (≈ 2.2 µM) | MIC [6, 9]: 14 µg/mL (≈ 25.6 µM) | MIC [7]: 65 µg/mL (≈ 119 µM) | MIC (P. cepacia): 18 µg/mL (≈ 32.9 µM) | MIC (X. moltophilia): 71 µg/mL (≈ 130 µM)
